{
  "source": "patent US4533666A",
  "about": "“6-Phenyl-2,3-bis-(4-methoxyphenyl)-pyridine derivatives having anti-inflammatory activity” (Eli Lilly and Company, priority 1983, dated 1985)",
  "key": {"[1]": {"experiment": "mouse writhing assay (acetic acid-induced)", "assay_type": "in vivo, mouse (Cox standard strain albino male mice)", "conditions": "oral gavage in corn oil-acacia emulsion (5%), three hours before acetic acid (0.60 percent) i.p., five mice per group; for ED50: Mus musculus, po, 3 h", "from_the_text": "The analgesic activity of a number of compounds provided by this invention has been determined in the standard mouse writhing assay. Writhing, which is characterized by contraction of the abdominal musculature, extension of the hindlegs, and rotation of the trunk, was induced in Cox standard strain albino male mice. The mice, weighing 18-24 grams, were fasted overnight and given the test compound by gavage in a corn oil-acacia emulsion (5%) three hours before writhing was induced by the intraperitoneal administration of acetic acid (0.60 percent). Each treatment group consisted of five mice. The total number of writhes for the treatment group was determined during a 10-minute observation starting five minutes after acetic acid administration. […] Table I which follows presents typical test results obtained with certain of the compounds of this invention. The results in the mouse writhing assay are presented as the effective oral (p.o.) dose in mg./kg. of the tested compound required to inhibit induced writhing in the test animals by fifty percent (ED50)."}, "[2]": {"experiment": "Established adjuvant-induced arthritis test in rats, uninjected paw volume inflammation", "assay_type": "in vivo, rat (male Lewis-Wistar rats)", "conditions": "Days 14 through 30, AUC difference"}},
  "data": [
    {"compound": "COc1ccc(-c2ccc(-c3ccc(F)cc3)nc2-c2ccc(OC)cc2)cc1", "note": "[Example 1, 6-(4-Fluorophenyl)-2,3-bis(4-methoxyphenyl)pyridine]", "values": [
      {"measurement": "ED50", "setting": "[1]", "result": 3.5, "unit": "mg/kg"},
      {"measurement": "% Inhibition of Uninjected Paw Volume Inflammation", "setting": "[2]; 5 mg./kg. p.o. × 15", "result": 70, "unit": "%"},
      {"measurement": "% Inhibition of Uninjected Paw Volume Inflammation", "setting": "[2]; 10 mg./kg. p.o. × 15", "result": 80, "unit": "%"}
    ]},
    {"compound": "COc1ccc(-c2ccc(-c3ccccc3)nc2-c2ccc(OC)cc2)cc1", "note": "[Example 2, 6-Phenyl-2,3-bis(4-methoxyphenyl)pyridine]", "values": [
      {"measurement": "ED50", "setting": "[1]", "result": 2.7, "unit": "mg/kg"},
      {"measurement": "% Inhibition of Uninjected Paw Volume Inflammation", "setting": "[2]; 25 mg./kg. p.o. × 15, Average of two experiments", "result": 40, "unit": "%"}
    ]},
    {"compound": "COc1ccc(-c2ccc(-c3ccc(Cl)cc3)nc2-c2ccc(OC)cc2)cc1", "note": "[Example 3, 6-(4-Chlorophenyl)-2,3-bis(4-methoxyphenyl)pyridine]", "values": [
      {"measurement": "ED50", "setting": "[1]", "result": 0.78, "unit": "mg/kg"},
      {"measurement": "% Inhibition of Uninjected Paw Volume Inflammation", "setting": "[2]; 5 mg./kg. p.o. × 15", "result": 30, "unit": "%"},
      {"measurement": "% Inhibition of Uninjected Paw Volume Inflammation", "setting": "[2]; 10 mg./kg. p.o. × 15", "result": 58, "unit": "%"}
    ]},
    {"compound": "COc1ccc(-c2ccc(-c3ccc(Br)cc3)nc2-c2ccc(OC)cc2)cc1", "note": "[Example 4, 6-(4-Bromophenyl)-2,3-bis(4-methoxyphenyl)pyridine]", "values": [
      {"measurement": "ED50", "setting": "[1]", "result": 4.1, "unit": "mg/kg"},
      {"measurement": "% Inhibition of Uninjected Paw Volume Inflammation", "setting": "[2]; 10 mg./kg. p.o. × 15", "result": 27, "unit": "%"},
      {"measurement": "% Inhibition of Uninjected Paw Volume Inflammation", "setting": "[2]; 25 mg./kg. p.o. × 15", "result": 48, "unit": "%"}
    ]},
    {"compound": "COc1ccc(-c2ccc(-c3ccc(F)cc3)nc2-c2ccc(OC)cc2)cc1", "note": "[Example 6, 6-(4-Fluorophenyl)-2,3-bis(4-methoxyphenyl)pyridine 4-methylbenzenesulfonate]", "values": [
      {"measurement": "Mouse Writhing ED50", "setting": "[1]; 180 min, 4-methylbenzenesulfonate, 180 min", "result": 4.2, "unit": "mg./kg. p.o."},
      {"measurement": "% Inhibition of Uninjected Paw Volume Inflammation", "setting": "[2]; 5 mg./kg. p.o. × 15, 4-methylbenzenesulfonate", "result": 69, "unit": "%"},
      {"measurement": "% Inhibition of Uninjected Paw Volume Inflammation", "setting": "[2]; 10 mg./kg. p.o. × 15, 4-methylbenzenesulfonate", "result": 71, "unit": "%"}
    ]},
    {"compound": "COc1ccc(-c2ccc(-c3ccc(C(F)(F)F)cc3)nc2-c2ccc(OC)cc2)cc1", "note": "[Example 7, 6-(4-Trifluoromethylphenyl)-2,3-bis(4-methoxyphenyl)pyridine]", "values": [
      {"measurement": "ED50", "setting": "[1]", "result": 8.9, "unit": "mg/kg"},
      {"measurement": "% Inhibition of Uninjected Paw Volume Inflammation", "setting": "[2]; 25 mg./kg. p.o. × 15", "result": 33, "unit": "%"}
    ]}
  ]
}
